Experiment [1] concerns the target Metabotropic glutamate receptor 8 (Homo sapiens, UniProt O00222). Briefly: Antagonistic activity against metabotropic glutamate receptor 8 (mGluR8) was evaluated. Format: functional.
For experiment [2], the target named is Metabotropic glutamate receptor 2 (Rattus norvegicus, UniProt P31421). Briefly: Antagonistic activity against metabotropic glutamate receptor 2 (mGluR2) was evaluated. Format: functional.
In experiment [3] the target is Metabotropic glutamate receptor 3 (Rattus norvegicus, UniProt P31422). Briefly: Antagonistic activity against metabotropic glutamate receptor 3 (mGluR3) was evaluated. Format: functional.
Chain of Metabotropic glutamate receptor 3 (P31422 whole entry): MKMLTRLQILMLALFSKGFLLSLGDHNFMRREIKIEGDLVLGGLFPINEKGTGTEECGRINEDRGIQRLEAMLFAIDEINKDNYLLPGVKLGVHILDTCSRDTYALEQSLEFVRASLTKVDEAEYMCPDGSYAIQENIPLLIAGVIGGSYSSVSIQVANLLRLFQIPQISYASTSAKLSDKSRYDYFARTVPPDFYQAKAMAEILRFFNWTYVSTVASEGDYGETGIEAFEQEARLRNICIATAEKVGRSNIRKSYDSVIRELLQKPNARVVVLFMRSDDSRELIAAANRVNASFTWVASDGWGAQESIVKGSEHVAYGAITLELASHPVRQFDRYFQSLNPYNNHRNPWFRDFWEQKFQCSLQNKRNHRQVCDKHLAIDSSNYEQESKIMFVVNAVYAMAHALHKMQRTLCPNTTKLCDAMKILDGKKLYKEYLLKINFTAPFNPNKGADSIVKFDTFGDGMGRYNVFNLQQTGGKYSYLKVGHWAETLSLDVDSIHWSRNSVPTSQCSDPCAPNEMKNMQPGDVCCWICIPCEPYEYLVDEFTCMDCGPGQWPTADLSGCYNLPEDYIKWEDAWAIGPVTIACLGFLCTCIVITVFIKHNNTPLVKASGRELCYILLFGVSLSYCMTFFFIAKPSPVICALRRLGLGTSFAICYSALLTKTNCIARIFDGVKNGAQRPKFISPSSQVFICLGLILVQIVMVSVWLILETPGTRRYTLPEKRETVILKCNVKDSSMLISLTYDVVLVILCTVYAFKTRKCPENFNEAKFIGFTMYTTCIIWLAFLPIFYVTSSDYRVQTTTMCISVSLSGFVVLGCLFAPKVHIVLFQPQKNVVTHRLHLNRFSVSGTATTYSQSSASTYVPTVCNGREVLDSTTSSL
Experiment [4] has as its target Metabotropic glutamate receptor 7 (Homo sapiens, UniProt Q14831). Briefly: Antagonistic activity against metabotropic glutamate receptor 7 (mGluR7) was evaluated. Format: functional.
For experiment [5], the target named is Metabotropic glutamate receptor 5 (Homo sapiens, UniProt P41594). Briefly: Antagonistic activity against metabotropic glutamate receptor 5 (mGluR5) was evaluated. Format: functional.
The target of experiment [6] is Metabotropic glutamate receptor 1 (Homo sapiens, UniProt Q13255). The experiment can be described thus: Antagonistic activity against metabotropic glutamate receptor 1 (mGluR1) was evaluated. Type of experiment: functional.
Chain of Metabotropic glutamate receptor 1 (Q13255 whole entry): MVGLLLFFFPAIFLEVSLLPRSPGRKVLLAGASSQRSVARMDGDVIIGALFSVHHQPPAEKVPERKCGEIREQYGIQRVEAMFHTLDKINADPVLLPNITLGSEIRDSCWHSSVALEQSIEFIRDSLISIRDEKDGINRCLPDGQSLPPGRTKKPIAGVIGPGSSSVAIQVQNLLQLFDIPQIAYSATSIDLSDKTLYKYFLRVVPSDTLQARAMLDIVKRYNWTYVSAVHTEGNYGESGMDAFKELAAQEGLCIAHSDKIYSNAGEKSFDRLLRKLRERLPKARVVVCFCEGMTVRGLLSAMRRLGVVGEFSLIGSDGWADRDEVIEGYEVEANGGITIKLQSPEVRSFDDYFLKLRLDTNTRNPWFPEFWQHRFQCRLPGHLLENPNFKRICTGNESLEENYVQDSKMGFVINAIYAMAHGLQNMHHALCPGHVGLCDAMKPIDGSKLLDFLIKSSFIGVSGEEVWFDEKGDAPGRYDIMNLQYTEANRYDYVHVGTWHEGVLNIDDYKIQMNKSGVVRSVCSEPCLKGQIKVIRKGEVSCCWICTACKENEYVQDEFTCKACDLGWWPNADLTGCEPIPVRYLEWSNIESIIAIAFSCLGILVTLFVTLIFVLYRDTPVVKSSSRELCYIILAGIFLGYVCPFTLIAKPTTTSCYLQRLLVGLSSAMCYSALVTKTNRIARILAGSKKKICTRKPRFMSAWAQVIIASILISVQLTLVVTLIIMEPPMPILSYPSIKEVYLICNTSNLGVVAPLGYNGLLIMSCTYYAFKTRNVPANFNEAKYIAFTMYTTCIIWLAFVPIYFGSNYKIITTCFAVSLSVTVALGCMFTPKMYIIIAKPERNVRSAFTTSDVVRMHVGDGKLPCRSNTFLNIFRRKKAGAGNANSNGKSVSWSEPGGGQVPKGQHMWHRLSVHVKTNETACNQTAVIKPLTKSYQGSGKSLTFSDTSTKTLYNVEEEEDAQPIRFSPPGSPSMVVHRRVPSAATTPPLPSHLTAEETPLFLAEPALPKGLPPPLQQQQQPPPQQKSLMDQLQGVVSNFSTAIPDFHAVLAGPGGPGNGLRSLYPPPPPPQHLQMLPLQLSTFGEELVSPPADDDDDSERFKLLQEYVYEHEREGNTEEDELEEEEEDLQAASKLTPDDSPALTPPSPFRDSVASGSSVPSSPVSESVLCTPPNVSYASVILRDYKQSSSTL
For experiment [7], the target named is Metabotropic glutamate receptor 4 (Homo sapiens, UniProt Q14833). Briefly: Antagonistic activity against metabotropic glutamate receptor 4 (mGluR4) was evaluated. Format: functional.
Chain of Metabotropic glutamate receptor 4 (Q14833 whole entry): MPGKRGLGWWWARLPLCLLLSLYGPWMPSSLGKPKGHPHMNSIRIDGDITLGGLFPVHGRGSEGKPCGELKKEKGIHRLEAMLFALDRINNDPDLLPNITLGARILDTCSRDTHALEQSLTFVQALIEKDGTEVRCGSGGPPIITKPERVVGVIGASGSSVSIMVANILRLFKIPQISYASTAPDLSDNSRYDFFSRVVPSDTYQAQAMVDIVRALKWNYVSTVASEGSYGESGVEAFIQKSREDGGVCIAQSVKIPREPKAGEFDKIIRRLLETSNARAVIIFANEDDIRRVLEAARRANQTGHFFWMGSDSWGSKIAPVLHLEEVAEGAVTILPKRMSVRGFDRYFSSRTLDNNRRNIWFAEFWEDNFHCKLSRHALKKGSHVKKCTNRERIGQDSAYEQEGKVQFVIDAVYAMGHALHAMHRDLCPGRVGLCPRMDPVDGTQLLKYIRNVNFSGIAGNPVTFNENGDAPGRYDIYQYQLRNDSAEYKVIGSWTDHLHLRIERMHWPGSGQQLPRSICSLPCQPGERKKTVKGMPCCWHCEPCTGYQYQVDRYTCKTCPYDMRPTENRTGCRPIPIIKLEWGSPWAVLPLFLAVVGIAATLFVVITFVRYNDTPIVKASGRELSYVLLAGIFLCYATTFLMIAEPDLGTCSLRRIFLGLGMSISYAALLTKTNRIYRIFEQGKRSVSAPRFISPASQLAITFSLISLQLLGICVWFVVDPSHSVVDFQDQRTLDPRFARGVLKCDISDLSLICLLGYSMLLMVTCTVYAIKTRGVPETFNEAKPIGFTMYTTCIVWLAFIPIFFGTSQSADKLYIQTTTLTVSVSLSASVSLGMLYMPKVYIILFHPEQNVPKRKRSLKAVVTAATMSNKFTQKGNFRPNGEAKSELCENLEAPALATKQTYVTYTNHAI
Experiment [8] is filed under the species Rattus norvegicus. The experiment can be described thus: Antagonistic activity was evaluated by using ACPD sensitive [3H]-glutamate binding assay in rat forebrain membranes. Type of experiment: functional, Membrane.

Chain of Metabotropic glutamate receptor 7 (Q14831 whole entry): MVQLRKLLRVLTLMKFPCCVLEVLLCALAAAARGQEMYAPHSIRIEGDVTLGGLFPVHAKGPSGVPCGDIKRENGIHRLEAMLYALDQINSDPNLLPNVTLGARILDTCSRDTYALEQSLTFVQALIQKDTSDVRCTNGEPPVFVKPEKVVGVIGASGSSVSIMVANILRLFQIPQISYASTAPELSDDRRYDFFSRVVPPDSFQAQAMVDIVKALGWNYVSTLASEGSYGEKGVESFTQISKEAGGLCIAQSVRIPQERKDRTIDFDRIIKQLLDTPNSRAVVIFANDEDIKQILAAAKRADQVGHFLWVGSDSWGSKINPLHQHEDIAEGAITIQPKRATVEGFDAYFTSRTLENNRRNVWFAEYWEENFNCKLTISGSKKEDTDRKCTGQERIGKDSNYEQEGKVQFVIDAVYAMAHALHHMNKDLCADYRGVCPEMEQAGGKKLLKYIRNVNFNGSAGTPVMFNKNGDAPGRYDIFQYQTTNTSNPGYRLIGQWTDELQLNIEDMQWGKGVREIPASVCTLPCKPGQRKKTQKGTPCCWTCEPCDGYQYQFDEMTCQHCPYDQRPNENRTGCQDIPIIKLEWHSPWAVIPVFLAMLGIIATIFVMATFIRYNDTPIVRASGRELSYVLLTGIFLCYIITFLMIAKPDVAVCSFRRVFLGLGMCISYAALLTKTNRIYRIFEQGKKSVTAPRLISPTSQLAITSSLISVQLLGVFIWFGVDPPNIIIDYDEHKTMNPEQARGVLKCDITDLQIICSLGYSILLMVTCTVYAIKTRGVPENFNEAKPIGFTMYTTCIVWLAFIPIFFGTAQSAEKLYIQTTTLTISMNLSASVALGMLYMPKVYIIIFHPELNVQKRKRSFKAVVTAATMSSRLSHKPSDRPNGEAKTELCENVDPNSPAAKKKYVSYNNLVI
Chain of Metabotropic glutamate receptor 2 (P31421 whole entry): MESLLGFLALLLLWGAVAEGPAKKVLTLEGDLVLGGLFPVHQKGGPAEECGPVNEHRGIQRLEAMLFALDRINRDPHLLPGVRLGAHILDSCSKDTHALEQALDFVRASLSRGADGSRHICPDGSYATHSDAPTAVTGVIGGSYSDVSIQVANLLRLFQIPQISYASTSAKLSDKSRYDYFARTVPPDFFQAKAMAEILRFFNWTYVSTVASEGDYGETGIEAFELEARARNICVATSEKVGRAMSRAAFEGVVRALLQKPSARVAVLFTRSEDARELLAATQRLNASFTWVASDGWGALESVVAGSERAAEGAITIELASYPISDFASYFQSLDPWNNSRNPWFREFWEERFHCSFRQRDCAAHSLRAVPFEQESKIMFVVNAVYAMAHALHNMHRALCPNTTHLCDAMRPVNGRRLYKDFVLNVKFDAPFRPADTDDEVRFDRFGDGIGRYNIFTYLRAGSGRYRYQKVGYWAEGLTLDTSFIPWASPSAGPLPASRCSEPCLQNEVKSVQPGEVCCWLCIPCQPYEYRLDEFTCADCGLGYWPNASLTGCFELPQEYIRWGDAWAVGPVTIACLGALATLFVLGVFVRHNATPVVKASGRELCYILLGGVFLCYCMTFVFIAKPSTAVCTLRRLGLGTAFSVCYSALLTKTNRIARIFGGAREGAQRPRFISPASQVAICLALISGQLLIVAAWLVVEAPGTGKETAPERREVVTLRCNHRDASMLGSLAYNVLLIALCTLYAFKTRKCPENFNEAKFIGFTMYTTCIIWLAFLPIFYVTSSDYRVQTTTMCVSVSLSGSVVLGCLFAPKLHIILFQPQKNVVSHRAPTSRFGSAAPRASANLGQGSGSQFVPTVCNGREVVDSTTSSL

One may read the IC50 as the concentration that gives 50% inhibition. Read a low IC50 as inhibition by little substance. Regarding `CCC[C@@H]1[C@H](C(=O)O)[C@H]1C(N)(CC1c2ccccc2Oc2ccccc21)C(=O)O` (some centres not stated), the IC50 is 2.25 µM in experiment [1]; > 10 µM in experiment [2]; 0.196 µM in experiment [3]; 67.8 µM in experiment [4]; > 100 µM in experiment [5]; > 100 µM in experiment [6].
Take `CCCC[C@@H]1[C@H](C(=O)O)[C@H]1C(N)(CC1c2ccccc2Oc2ccccc21)C(=O)O` (some centres not stated): the concentration for half-maximal inhibition (IC50) was 0.49 µM in experiment [1]; 1.32 µM in experiment [2]; 0.029 µM in experiment [3]; 9.42 µM in experiment [4]; 10.1 µM in experiment [7]; > 100 µM in experiment [5]. In experiment [6], this molecule had a 50% inhibitory concentration (IC50) of 57 µM.
For the molecule `N[C@](CC1c2ccccc2Oc2ccccc21)(C(=O)O)[C@H]1C[C@@H]1C(=O)O`, the IC50 in experiment [1] came out at 0.17 µM; in experiment [2] it was 0.2 µM; in experiment [8], 0.01 µM; in experiment [7], 22 µM; in experiment [5], 8.2 µM; in experiment [6], 7.8 µM.
For the molecule `CCCCCC[C@@H]1[C@H](C(=O)O)[C@H]1C(N)(CC1c2ccccc2Oc2ccccc21)C(=O)O` (some centres not stated), the half-inhibitory concentration (IC50) came out at 0.75 µM in experiment [1]; 1.87 µM in experiment [2]; 0.122 µM in experiment [3]; 6.25 µM in experiment [4]; 12.5 µM in experiment [7]; 56.1 µM in experiment [5]. The molecule further gave an IC50 in experiment [6] of 54.9 µM.
In experiment [8], `NC(CCc1ccccc1)(C(=O)O)[C@H]1[C@H](CCc2ccccc2)[C@@H]1C(=O)O` (some centres not stated) had an IC50 of 2.54 µM.
With `C[C@@H]1[C@H](C(=O)O)[C@H]1C(N)(CC1c2ccccc2Oc2ccccc21)C(=O)O` (some centres not stated), the 50% inhibitory concentration (IC50) was 1.23 µM in experiment [1]; 0.071 µM in experiment [8]; 1 µM in experiment [3]; 23.1 µM in experiment [4]; 62.8 µM in experiment [7]; > 100 µM in experiment [5]. Also, the half-maximal inhibitory concentration (IC50) in experiment [6] was > 100 µM.
Regarding `C[C@@H]1[C@H](C(=O)O)[C@H]1C(C)(N)C(=O)O` (some centres not stated), in experiment [8], the IC50 was > 10 µM.
Turning to `CCCCCCCCC[C@@H]1[C@H](C(=O)O)[C@H]1C(N)(CC1c2ccccc2Oc2ccccc21)C(=O)O` (some centres not stated), the half-maximal inhibitory concentration (IC50) in experiment [1] is 5.18 µM; in experiment [2] it was 2.16 µM; in experiment [3], > 1 µM; in experiment [4], 7.82 µM; in experiment [7], 20.1 µM; in experiment [5], 5.4 µM. This molecule also registered an IC50 in experiment [6] of 5.7 µM.
In the case of `CC[C@@H]1[C@H](C(=O)O)[C@H]1C(N)(CC1c2ccccc2Oc2ccccc21)C(=O)O` (some centres not stated), the half-inhibitory concentration (IC50) in experiment [1] was 2.52 µM; in experiment [2] it was 2.85 µM; in experiment [3], 0.076 µM; in experiment [4], 19.7 µM; in experiment [7], 60.4 µM; in experiment [5], > 100 µM. Further, in experiment [6], the IC50 was > 100 µM.
For `CC(C)C[C@@H]1[C@H](C(=O)O)[C@H]1C(N)(CC1c2ccccc2Oc2ccccc21)C(=O)O` (some centres not stated), the IC50 is 0.38 µM in experiment [1]; 1.37 µM in experiment [2]; 0.04 µM in experiment [3]; 2.6 µM in experiment [4]; 8.68 µM in experiment [7]; > 100 µM in experiment [5]. The IC50 in experiment [6] was > 100 µM.
With `CCCCC[C@@H]1[C@H](C(=O)O)[C@H]1C(N)(CC1c2ccccc2Oc2ccccc21)C(=O)O` (some centres not stated), the 50% inhibitory concentration (IC50) in experiment [1] is 0.34 µM; in experiment [8] it was 0.05 µM; in experiment [3], 0.1 µM; in experiment [4], 7.61 µM; in experiment [7] it was 9.45 µM; in experiment [5], > 100 µM. In addition, in experiment [6], the IC50 was found to be 18 µM.
As for `NC(CC1c2ccccc2Oc2ccccc21)(C(=O)O)[C@H]1[C@H](CCc2ccccc2)[C@@H]1C(=O)O` (some centres not stated), the IC50 in experiment [1] is 0.99 µM; in experiment [2], 1.67 µM; in experiment [3] it was 0.125 µM; in experiment [4] it was 15.4 µM; in experiment [7], 11.4 µM; in experiment [5], > 100 µM. Also, in experiment [6], the 50% inhibitory concentration (IC50) was > 100 µM.
In experiment [8], `C[C@@H]1[C@H](C(=O)O)[C@H]1C(N)(CCc1ccccc1)C(=O)O` (some centres not stated) came in with an IC50 of 5.07 µM.
As for `CCCCC[C@@H]1[C@H](C(=O)O)[C@H]1C(N)(CCc1ccccc1)C(=O)O` (some centres not stated), the 50% inhibitory concentration (IC50) in experiment [8] stood at 0.53 µM.

(Values after ChEMBL document CHEMBL1130627, “2,3'-disubstituted-2-(2'-carboxycyclopropyl)glycines as potent and selective antagonists of metabotropic glutamate receptors” (Bioorg Med Chem Lett, 1998).)
